Reference: patent US20080008669A1, “Photostable sunscreen compositions comprising cinnamate ester UV-B filters and s-triazine compounds” (L'OREAL, priority 2006, published 2008)

Test: Measurement of photostability of the cinnamate UV-B filter in emulsion formulas on PMMA plates under SUN TEST xenon lamp
Format: physicochemical
Conditions: Formulas 9-11 (1-4% of Example 1) compared with control Formula 8

## CCCCOC(=O)c1ccc(Nc2nc(Nc3ccc(C=C(C(=O)OCC(C)(C)C)C(=O)OCC(C)(C)C)cc3)nc(Nc3ccc(C=C(C(=O)OCC(C)(C)C)C(=O)OCC(C)(C)C)cc3)n2)cc1 [Example 1, 2,4-bis-(dineopentyl 4′-aminobenzalmalonate)-6-(butyl 4″-aminobenzoate)-s-triazine]
  Photostability of the cinnamate ester in the presence of the compound: improvement in the photostability of the cinnamate ester is clearly seen
